# Assay results published in patent publication US20240156764A1, “INHIBITION OF URACIL DNA GLYCOSYLASE IN THE OPEN CONFORMATION” (CASE WESTERN RESERVE UNIVERSITY, priority 2022, published 2024).
# How the values were obtained:
# [1] = tested on: uracil removal in wild type HAP cells; assay: Host-cell reactivation assay, uracil removal, wild type HAP cells; type: cell-based, human; settings: ATA 5.0 μM
# Method: (§1) A: MCF-7 cells were seeded at 50,000 cells per well in a 12-well plate. B: HAP cells (wild type or UNG gene knockout) were seeded at 75,000 cells per well in a 6-well plate. […] After 24 hours, cells were dissociated by trypsinization and analyzed by flow cytometry using an Atune NxT flow cytometer. Gating and compensation were determined by transfection of single-color controls. Reporter expression was calculated for each dose of ATA as previously described in publications and normalized to DMSO treatment.
# (§2) Removal of uracil in cells was measured using a reporter plasmid containing a dU:dG base pair (referred to as BFP_U), as described previously. […] The reciprocal of BFP_U reporter expression was calculated for each experimental condition. […] This creates a premature stop codon, completely abolishing fluorescence. Removal of thymidine followed by insertion of dC opposite dG restores reporter fluorescence.
# Human breast cancer MCF-7 cells were seeded at 50,000 cells per well in a 12-well plate, while HAP cells (wild type or UNG knockout) were seeded at 75,000 cells per well in a 6-well plate. […] After 24 hours, cells were dissociated by trypsinization and analyzed by flow cytometry using an Atune NxT flow cytometer. Gating and compensation were determined by transfection of single-color controls. […]
# human UDG = human UDG (Homo sapiens, UniProt P13051); assay: UDG protein thermal shift with Sypro orange dye; type: binding; settings: 100 μM ATA
# Sequence of human UDG (P13051 94-313 limits assumed): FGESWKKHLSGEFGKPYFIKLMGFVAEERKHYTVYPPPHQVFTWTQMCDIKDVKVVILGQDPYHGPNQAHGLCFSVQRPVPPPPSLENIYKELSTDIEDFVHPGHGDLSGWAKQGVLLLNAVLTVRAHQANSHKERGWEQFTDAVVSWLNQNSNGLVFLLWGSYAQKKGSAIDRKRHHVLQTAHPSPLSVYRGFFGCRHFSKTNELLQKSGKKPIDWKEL
# Method: The data for thermophoresis was recorded at 20° C. using the blue LED at 20% and IR-Laser at 40%. The isotherm derived from the raw data and fitted according to the law of mass action. […] Then 2 μL of 10× Sypro dye and 2 μL of ddH20 (Applied biosystems cat #4461141) were added. Monitoring of fluorescence took place for 2 hr (Bioraid CFX96, Hex filter, 25-97° C., 1.6° C./2 min). Negative (−) derivative RFU raw data and plots from the machine were obtained and analyzed. […] Melting temperature (Tm) value was taken directly from the midpoint on the −dRFU/dt vs. temperature graph. Each point on the graph represents an average of three data sets. Y error bars represent the standard deviation.
# FIGS. 10(A-D) illustrate UDG thermal shift. A: Uracil DNA hairpin stabilizes UDG protein. […] Melting temperature (Tm) values were taken directly from lowest peak point on the negative dRFU/dt over temperature plots. B: (with uracil DNA): Parallel set of wells on the same plate included uracil-DNA harpin (final […]). Each plate was incubated 60 min at room temperature before the monitoring of fluorescence took place about 2 hr (Biorad CFX96, Hex filter, 25° C.-97C, 1.6° C./2 min). […] Each plate was incubated 60 min at room temperature before the monitoring of fluorescence took place about 2 hr (Biorad CFX96, Hex filter, 25° C.-97° C., increment of 1.6° C./2 min). […]
# [2] = tested on: uracil removal (U:G base pair) in MCF-7 cells; assay: Host-cell reactivation assay, uracil removal from reporter plasmid, MCF-7; type: cell-based, human
# Method: as §1
# Panel A: 1.25 μM and panel B: 2.5 μM. Reporter expression was calculated for each dose of ATA as described in prior publications and normalized to DMSO treatment.
# as §2
# Human breast cancer MCF-7 cells were seeded at 50,000 cells per well in a 12-well plate, while HAP cells (wild type or UNG knockout) were seeded at 75,000 cells per well in a 6-well plate. […] After 24 hours, cells were dissociated by trypsinization and analyzed by flow cytometry using an Atune NxT flow cytometer. […]
smiles,measurement,setting,value
"O=C(O)C1=CC(=C(c2ccc(O)c(C(=O)O)c2)c2ccc(O)c(C(=O)O)c2)C=CC1=O [ATA, aurintricarboxylic acid]",reduction of uracil removal in wild type cells,[1],1.8 fold
same,share of the effect of UDG knockout,[1],60%
same,average maximum Tm change for UDG,human UDG; absence of uracil containing DNA,~3.0 °C
same,change of Tm of UDG protein,human UDG; with 1.0 mM uracil DNA hairpin,did not further change the Tm
same,uracil removal in MCF-7 cells,"[2]; ATA 2.5 μM, 24 hr",significantly inhibited uracil removal
same,uracil removal in MCF-7 cells at increasing concentrations,[2]; ATA up to 10 μM vs 2.5 μM,not statistically different from the 2.5 μM dose
